Assays:
MINO = experiment: Co-treatment combination study with Cpd. No. 15, CellTiter-Glo viability, Loewe Volume; type: cell-based; conditions: in combination with Cpd. No. 15, seven days, mantle cell lymphoma cell line MINO (CRL-3000)
How it was run: (§1)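 MCL and DLBCL lines in log-phase growth were co-treated with Cpd. No. 15 plus a combination partner, in quadruplicate, 0.1% v/v DMSO final. After seven days at 37° C, 5% CO2, viability was read as cellular ATP by CellTiter-Glo luminescence; percent inhibition per concentration was derived from four-parameter logistic fits.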

DOHH2 = experiment: as above; type: cell-based; conditions: in combination with Cpd. No. 15, seven days, DLBCL cell line DOHH2
How it was run: as §1

SUDHL8 = experiment: as above; type: cell-based; conditions: in combination with Cpd. No. 15, seven days, DLBCL cell line SUDHL8
How it was run: as §1

JEKO1 = experiment: as above; type: cell-based; conditions: in combination with Cpd. No. 15, seven days, mantle cell lymphoma cell line JEKO1 (CRL-3006)
How it was run: as §1

DB = experiment: as above; type: cell-based; conditions: in combination with Cpd. No. 15, seven days, DLBCL cell line DB
How it was run: as §1

SUDHL6 = experiment: as above; type: cell-based; conditions: in combination with Cpd. No. 15, seven days, DLBCL cell line SUDHL6
How it was run: as §1

SUDHL5 = experiment: as above; type: cell-based; conditions: in combination with Cpd. No. 15, seven days, DLBCL cell line SUDHL5
How it was run: as §1

WSUDLCL2 = experiment: as above; type: cell-based; conditions: in combination with Cpd. No. 15, seven days, DLBCL cell line WSUDLCL2
How it was run: as §1

RL = experiment: as above; type: cell-based; conditions: in combination with Cpd. No. 15; 6-Day Cotreatment; DLBCL cell line RL
GRANTA519 = experiment: as above; type: cell-based; conditions: in combination with Cpd. No. 15, seven days, mantle cell lymphoma cell line GRANTA519 (ACC 342)
How it was run: as §1

TOLEDO = experiment: as above; type: cell-based; conditions: in combination with Cpd. No. 15, seven days, DLBCL cell line TOLEDO
How it was run: as §1

SUDHL10 = experiment: as above; type: cell-based; conditions: in combination with Cpd. No. 15; 5-Day Cotreatment; DLBCL cell line SUDHL10
SUDHL2 = experiment: as above; type: cell-based; conditions: in combination with Cpd. No. 15, seven days, DLBCL cell line SUDHL2
How it was run: as §1

WSUNHL = experiment: as above; type: cell-based; conditions: in combination with Cpd. No. 15, seven days, DLBCL cell line WSUNHL
How it was run: as §1

MAVER1 = experiment: as above; type: cell-based; conditions: in combination with Cpd. No. 15, seven days, mantle cell lymphoma cell line MAVER1 (CRL-3008)
How it was run: as §1

JVM2 = experiment: as above; type: cell-based; conditions: in combination with Cpd. No. 15, seven days, mantle cell lymphoma cell line JVM2 (CRL-3002)
How it was run: as §1

Z138 = experiment: as above; type: cell-based; conditions: in combination with Cpd. No. 15, seven days, mantle cell lymphoma cell line Z138 (CRL-3001)
How it was run: as §1

Pfeiffer = experiment: as above; type: cell-based; conditions: in combination with Cpd. No. 15, seven days, DLBCL cell line Pfeiffer
How it was run: as §1

KARPAS422 = experiment: as above; type: cell-based; conditions: in combination with Cpd. No. 15, seven days, DLBCL cell line KARPAS422
How it was run: as §1

HT = experiment: as above; type: cell-based; conditions: in combination with Cpd. No. 15, seven days, DLBCL cell line HT
How it was run: as §1

WILL2 = experiment: as above; type: cell-based; conditions: in combination with Cpd. No. 15, seven days, DLBCL cell line WILL2
How it was run: as §1

REC1 = experiment: as above; type: cell-based; conditions: in combination with Cpd. No. 15, seven days, mantle cell lymphoma cell line REC1 (CRL-3004)
How it was run: as §1

SUDHL4 = experiment: as above; type: cell-based; conditions: in combination with Cpd. No. 15, seven days, DLBCL cell line SUDHL4
How it was run: as §1

[1] = tested on: diffuse large B-cell lymphoma (DLBCL) cell lines; experiment: Pre-treatment model combination study with Cpd. No. 15 (7 days pre-treatment, then combination; Table G), CellTiter-Glo viability, Loewe Volume; conditions: 7 days pre-treatment with Cpd. No. 15, then combination; for Combination effect with Cpd. No. 15 (Loewe Volume class), Farage: cell line Farage (Cat. No. CRL-2630); for Combination effect with Cpd. No. 15 (Loewe Volume class), HT: cell line HT (Cat. No. CRL-2631); for Combination effect with Cpd. No. 15 (Loewe Volume class), OCILY7: cell line OCILY7 (Cat. No. ACC 688); for Combination effect with Cpd. No. 15 (Loewe Volume class), SUDHL4: cell line SUDHL4 (Cat. No. ACC 495)
[2] = tested on: diffuse large B-cell lymphoma (DLBCL) cell lines; experiment: Co-treatment combination study with Cpd. No. 15, further cell lines (Table F), CellTiter-Glo viability, Loewe Volume; type: cell-based; conditions: for Combination effect with Cpd. No. 15 (Loewe Volume class), Ri1: co-treatment with Cpd. No. 15, cell line Ri1 (Cat. No. 96090512-1VL); for Combination effect with Cpd. No. 15 (Loewe Volume class), TMD8: co-treatment with Cpd. No. 15, cell line TMD8 (Cat. No. M-097); for Combination effect with Cpd. No. 15 (Loewe Volume class), WILL1: co-treatment with Cpd. No. 15, cell line WILL1 (Cat. No. ACC 651)
How it was run: as §1

Structure (SMILES) | Combination effect (Loewe Volume) MINO (MINO) | Combination effect (Loewe Volume) DOHH2 (DOHH2) | Combination effect (Loewe Volume) SUDHL8 (SUDHL8) | Combination effect (Loewe Volume) JEKO1 (JEKO1) | Combination effect (Loewe Volume) DB (DB) | Combination effect (Loewe Volume) SUDHL6 (SUDHL6) | Combination effect (Loewe Volume) SUDHL5 (SUDHL5) | Combination effect (Loewe Volume) WSUDLCL2 (WSUDLCL2) | Combination effect (Loewe Volume) RL (RL) | Combination effect (Loewe Volume) GRANTA519 (GRANTA519) | Combination effect (Loewe Volume) TOLEDO (TOLEDO) | Combination effect (Loewe Volume) SUDHL10 (SUDHL10) | Combination effect (Loewe Volume) SUDHL2 (SUDHL2) | Combination effect (Loewe Volume) WSUNHL (WSUNHL) | Combination effect (Loewe Volume) MAVER1 (MAVER1) | Combination effect (Loewe Volume) JVM2 (JVM2) | Combination effect (Loewe Volume) Z138 (Z138) | Combination effect (Loewe Volume) Pfeiffer (Pfeiffer) | Combination effect (Loewe Volume) KARPAS422 (KARPAS422) | Combination effect (Loewe Volume) HT (HT) | further results
CC#CC(=O)N1CCC[C@H]1c1nc(-c2ccc(C(=O)Nc3ccccn3)cc2)c2c(N)nccn12 [Acalabrutinib, acalabrutinib] | Synergy (VLoewe>1: synergy) | No Effect | No Effect | Synergy (VLoewe>1: synergy) | No Effect | Synergy (VLoewe>1: synergy) | No Effect | Additivity (between 1 and −1: additivity) | No Effect | Additivity (between 1 and −1: additivity) | No Effect | No Effect | No Effect | No Effect | Synergy (VLoewe>1: synergy) | Additivity (between 1 and −1: additivity) | No Effect | No Effect | No Effect | No Effect | Combination effect (Loewe Volume) WILL2 (WILL2): Additivity (between 1 and −1: additivity); Combination effect (Loewe Volume) REC1 (REC1): Additivity (between 1 and −1: additivity); Combination effect (Loewe Volume) SUDHL4 (SUDHL4): No Effect; Combination effect with Cpd. No. 15 (Loewe Volume class), Farage [1]: Synergy (VLoewe>1: synergy); Combination effect with Cpd. No. 15 (Loewe Volume class), HT [1]: No Effect; Combination effect with Cpd. No. 15 (Loewe Volume class), OCILY7 [1]: No Effect; Combination effect with Cpd. No. 15 (Loewe Volume class), SUDHL4 [1]: No Effect; Combination effect with Cpd. No. 15 (Loewe Volume class), WILL2 ([1]; cell line WILL2 (Cat. No. ACC 652)): No Effect; Combination effect with Cpd. No. 15 (Loewe Volume class), Ri1 [2]: Synergy (VLoewe>1: synergy); Combination effect with Cpd. No. 15 (Loewe Volume class), TMD8 [2]: Synergy (VLoewe>1: synergy); Combination effect with Cpd. No. 15 (Loewe Volume class), WILL1 [2]: No Effect
C=CC(=O)N1CCC([C@@H]2CCNc3c(C(N)=O)c(-c4ccc(Oc5ccccc5)cc4)nn32)CC1 [Zanubrutinib, zanubrutinib] | Synergy (VLoewe>1: synergy) | Synergy (VLoewe>1: synergy) | No Effect | Synergy (VLoewe>1: synergy) | No Effect | Synergy (VLoewe>1: synergy) | No Effect | Additivity (between 1 and −1: additivity) | No Effect | Additivity (between 1 and −1: additivity) | Additivity (between 1 and −1: additivity) | No Effect | No Effect | Additivity (between 1 and −1: additivity) | Synergy (VLoewe>1: synergy) | Additivity (between 1 and −1: additivity) | No Effect | No Effect | No Effect | No Effect | Combination effect (Loewe Volume) WILL2 (WILL2): Additivity (between 1 and −1: additivity); Combination effect (Loewe Volume) REC1 (REC1): Additivity (between 1 and −1: additivity); Combination effect (Loewe Volume) SUDHL4 (SUDHL4): Synergy (VLoewe>1: synergy); Combination effect with Cpd. No. 15 (Loewe Volume class), Farage [1]: Synergy (VLoewe>1: synergy); Combination effect with Cpd. No. 15 (Loewe Volume class), HT [1]: Synergy (VLoewe>1: synergy); Combination effect with Cpd. No. 15 (Loewe Volume class), OCILY7 [1]: Synergy (VLoewe>1: synergy); Combination effect with Cpd. No. 15 (Loewe Volume class), SUDHL4 [1]: Synergy (VLoewe>1: synergy); Combination effect with Cpd. No. 15 (Loewe Volume class), Ri1 [2]: Synergy (VLoewe>1: synergy); Combination effect with Cpd. No. 15 (Loewe Volume class), TMD8 [2]: Synergy (VLoewe>1: synergy); Combination effect with Cpd. No. 15 (Loewe Volume class), WILL1 [2]: No Effect

— US20240299352A1, “COMBINATION THERAPIES WITH SETD2 INHIBITORS” (Epizyme, Inc., priority 2021, published 2024)
